Common to all, as to assay type: in vivo
Set-up in all cases: fold induction: dose or concentration left out as unconfirmed
Common to all, as to conditions: for fold induction: rates of Table 1 (S7 500)

Test [1] has as its system Contig2631_at, Lipase-like Protein (jasmonic acid biosynthesis gene). The experiment in a line: Gene expression profiling (GEP), barley DNA chip, probe set 1.1. The procedure:
(§1) Barley plants (cv. Baronesse) were grown in compost-filled pots (diameter: 10 cm) for 10 days in a controlled-environment cabinet under defined light, humidity and temperature conditions (white light, 70% atmospheric humidity, 24° C.). At the time of spray application, the seedlings were approximately 15 cm in size. The test substances selected in this example were molecules which differ markedly in their structure and which have a well documented pronounced safener effect, and other molecules which are known from the literature to have an effect on plant stress and pathogen tolerance (Table 1). The substances were prepared as stock solutions in DMSO (dimethyl sulfoxide) at c=10 mg/ml). This was used for preparing dilutions in water supplemented with 0.2% Agrotin (comprises polyvinyl alcohol, silicones, polysaccharides and pH regulators, manufacturer: Bayer CropScience AG, Monheim, Germany), as wetter, to give the application rates shown in the table. The amount of liquid for the spray application was 800 μl per pot, corresponding to 800 l/ha. For each 800 μl of spray mixture, 16 μl of EC premix: diacetone alcohol=1:6 were additionally added as formulation auxiliaries. The substances listed in Table 1 were applied to the leaves by means of a pneumatic spray pistol. Each substance was sprayed as 2 dosages, and all experiments were carried out as replicates (2 pots per substance). Sprayings with blank formulation without active ingredient were carried out as controls. After 6 hours, the leaves were harvested, frozen in liquid nitrogen and stored at −80° C. until further use. The labeled RNA probes for the DNA chip hybridization were prepared as described in the protocols (Expression Analysis, Technical Manual) from Affymetrix (Affymetrix Inc., 3380 Central Expressway, Santa Clara, Calif., USA). First, total RNA was isolated from in each case 500 mg of the harvested leaves. In each case 10 μg of total RNA was used for the first-strand and second-strand cDNA synthesis. The cDNA was amplified with T7 polymerase and simultaneously labeled with biotin-UTP. In each case, 20 μg of this biotinylated cDNA was employed for the hybridization of the barley genome array (Gene Chip Barleyl, order No.: 511012) from Affymetrix. This DNA microarray comprises DNA sequences of 22 840 genes which are composed of a total of 400 000 EST sequences. Thereafter, the DNA microarrays were washed in the Affymetrix Fluidics Station, stained with streptavidin/phycoerythrin (Molecular Probes, P/N S-866) and scanned with the matching Agilent Laser Scanner (Agilent Gene Array Scanner). The fluorescent data obtained were analyzed with the software Microarray Suite 5 from Affymetrix. After the quality had been checked, all DNA chip analyses were stored in a database. To determine the relative expression values for genes (induction factors, repression factors), test and control chips were compared with each other, and the scoring function set by the Affymetrix software was used as the basis. The 2 biological replications of one experiment were compared in each case with 2 control chips (blank formulation), and the 4 expression values obtained for each gene were used for calculating the median. These medians are shown in the results tables as induction factors. Similarity comparisons of expression profiles from different experiments and cluster analyses were carried out using the software GeneMaths 1.5 from Applied Maths (Applied Maths, Keistraat 120, 9830 Sint-Martens-Latem, Belgium).
(§2) Gene groups from specific metabolic pathways and signal transduction chains were put together by key word search in the annotations, of the genes, which were also provided by Affymetrix, and by Blast analyses (homology comparisons) of the DNA target sequences, i.e. of the positive sequence (identified on the basis of a modified expression profile) identified on the DNA chip, using gene sequences from other organisms, preferably plant organisms, with characterized functions. […]

The subject of test [2] is HI02E21u_s_at, Lipoxygenase (EC 1.13.11.12). The experiment in a line: GEP, barley DNA chip, probe set 1.2. The method, then:
as §1, §2

Test [3] relates to Contig5146_at, Probable 12-oxophytodienoate reductase (EC 1.3.1.42). Briefly: GEP, barley DNA chip, probe set 1.4. The procedure:
as §1, §2

For test [4], the system named is Contig6194_a_at, 12-oxophytodienoic acid reductase. Briefly: GEP, barley DNA chip, probe set 1.7. The procedure: as §1, §2
Test [5] has as its system Contig1736_at, Lipoxygenase 1 (EC 1.13.11.12). The experiment in a line: GEP, barley DNA chip, probe set 1.10. The procedure:
as §1, §2

Test [6] has as its system Contig6611_at, Similar to lipases. The experiment in a line: GEP, barley DNA chip, probe set 1.12. The procedure:
as §1, §2

Test [7] relates to Contig2305_at, Methyljasmonate inducible lipoxygenase. The experiment in a line: GEP, barley DNA chip, probe set 1.14. The method, then: as §1, §2
In test [8] the test system is Contig1737_at, Probable lipoxygenase. Briefly: GEP, barley DNA chip, probe set 1.15. The method, then:
as §1, §2

In test [9] the test system is Contig13413_at, Similar to lipases. The experiment in a line: GEP, barley DNA chip, probe set 1.17. The procedure:
as §1, §2

In test [10] the test system is Contig2337_at, 12-oxophytodienoate reductase (OPR1). The experiment in a line: GEP, barley DNA chip, probe set 1.20. The method, then: as §1, §2
Test [11] deals with Contig34_s_at, Putative proteinase inhibitor. Briefly: GEP, barley DNA chip, probe set 2.2. The procedure:
as §1, §2

The subject of test [12] is Contig88_x_at, Putative proteinase inhibitor. Briefly: GEP, barley DNA chip, probe set 2.3. The procedure:
as §1, §2

Test [13] deals with Contig5023_at, Class III chitinase. The experiment in a line: GEP, barley DNA chip, probe set 5.3. The method, then: as §1, §2
Where [14] appears, read: Hordeum vulgare, barley leaves 6 h after spray application, median induction factor vs control.
The mark [15] stands for this setting: Hordeum vulgare, topical, barley leaves 6 h after spray application, median induction factor vs control, read-out: Expression value, 1.2 HI02E21u_s_at.
Where [16] appears, read: Hordeum vulgare, topical, barley leaves 6 h after spray application, median induction factor vs control, read-out: Expression value, 1.4 Contig5146_at.
[17] abbreviates: Hordeum vulgare, topical, barley leaves 6 h after spray application, median induction factor vs control, read-out: Expression value, 1.7 Contig6194_a_at.
The mark [18] stands for this setting: Hordeum vulgare, barley leaves 6 h after spray application, median induction factor vs control, read-out: Expression value, 1.10 Contig1736_at.
The mark [19] stands for this setting: Hordeum vulgare, topical, barley leaves 6 h after spray application, median induction factor vs control, read-out: Expression value, 1.12 Contig6611_at.
Setting [20] is: Hordeum vulgare, topical, barley leaves 6 h after spray application, median induction factor vs control, read-out: Expression value, 1.14 Contig2305_at.
Setting [21] is: Hordeum vulgare, topical, barley leaves 6 h after spray application, median induction factor vs control, read-out: Expression value, 1.15 Contig1737_at.
The mark [22] stands for this setting: Hordeum vulgare, topical, barley leaves 6 h after spray application, median induction factor vs control, read-out: Expression value, 1.17 Contig13413_at.
Where [23] appears, read: Hordeum vulgare, topical, barley leaves 6 h after spray application, median induction factor vs control, read-out: Expression value, 1.20 Contig2337_at.
[24] abbreviates: Hordeum vulgare, topical, barley leaves 6 h after spray application, median induction factor vs control, read-out: Expression value, 2.2 Contig34_s_at.
Setting [25] is: Hordeum vulgare, topical, barley leaves 6 h after spray application, median induction factor vs control, read-out: Expression value, 2.3 Contig88_x_at.
The mark [26] stands for this setting: Hordeum vulgare, topical, barley leaves 6 h after spray application, median induction factor vs control, read-out: Expression value, 5.3 Contig5023_at.
[27] abbreviates: barley leaves 6 h after spray application, rates of Table 1 (150 g a.i./ha, S7 500), median induction factor vs control.

Regarding `O=C(O)c1cc(Cl)cc(Cl)c1O` [S10], the fold induction in test [1] (setting [14]) worked out at 1; in test [2] (setting [15]), 4.66; in test [3] (setting [16]), 1; in [4] (setting [17]) it was 1; in [5] (setting [18]) it was 1; in test [6] (setting [19]) it was 2.38. The fold induction in test [7] (setting [20]) amounted to 18.1; in test [8] (setting [21]) it was 1; in test [9] (setting [22]), 1; in test [10] (setting [23]), 1; in test [11] (setting [24]), 2.08; in test [12] (setting [25]) it was 4.41. Further, the fold induction in test [13] (setting [26]) was found to be 1.

As for `CCCCCC(C)OC(=O)COc1ccc(Cl)c2cccnc12` (stereo not drawn) [S4, Cloquintocet-mexyl], the fold induction in [1] (setting [14]) came out at 1; in test [2] (setting [15]) it was 1; in [3] (setting [16]), 4.72; in test [4] (setting [17]) it was 2.17; in test [5] (setting [18]), 1; in test [6] (setting [19]), 1. The fold induction in test [7] (setting [20]), in test [8] (setting [21]), in test [9] (setting [22]), in [10] (setting [23]), in [11] (setting [24]) and in test [12] (setting [25]) was 1 throughout. Also, the fold induction in test [13] (setting [26]) was determined as 1.

As to `NC(=O)c1ccc(C(F)(F)F)nc1O` [S6], the fold induction amounted to 1 in [1] (setting [14]); 1 in test [2] (setting [15]); 6.77 in test [3] (setting [16]); 3.16 in test [4] (setting [17]); 1 in test [5] (setting [18]); 1 in test [6] (setting [19]). The fold induction in test [7] (setting [20]), in [8] (setting [21]), in test [9] (setting [22]), in test [10] (setting [23]), in [11] (setting [24]) and in test [12] (setting [25]) was 1 in each case. Further, the fold induction in [13] (setting [26]) turned out to be 1.

In the case of `O=C(NO)c1ccccc1O` [S7, Salicyl hydroxamate], in test [1] (setting [27]), the “Expression value, 1.1 Contig2631_at” value came out at 1.00 x times. For the same molecule, the “Expression value, 1.2 HI02E21u_s_at” value in test [2] (setting [27]) is given as 1.00 x times. Further, the “Expression value, 1.4 Contig5146_at” value in test [3] (setting [27]) came out at 1.00 x times. In test [4] (setting [27]), the “Expression value, 1.7 Contig6194_a_at” value amounted to 1.00 x times. The “Expression value, 1.10 Contig1736_at” value in [5] (setting [27]) was found to be 1.00 x times. In addition, the “Expression value, 1.12 Contig6611_at” value in test [6] (setting [27]) was found to be 2.31 x times. In addition, the “Expression value, 1.14 Contig2305_at” value in test [7] (setting [27]) is 41.07 x times. The “Expression value, 1.15 Contig1737_at” value in test [8] (setting [27]) is 1.00 x times. Moreover, the “Expression value, 1.17 Contig13413_at” value in test [9] (setting [27]) was found to be 1.00 x times. In addition, the “Expression value, 1.20 Contig2337_at” value in test [10] (setting [27]) was determined as 1.00 x times. Besides, the “Expression value, 2.2 Contig34_s_at” value in test [11] (setting [27]) is on record as 4.50 x times. Besides, in test [12] (setting [27]), the “Expression value, 2.3 Contig88_x_at” value is reported as 21.86 x times. The “Expression value, 5.3 Contig5023_at” value in [13] (setting [27]) came out at 1.00 x times.

With `O=C(O)C1=NN(c2ccc(Cl)cc2Cl)C(c2ccc(F)cc2)C1` (stereo not drawn) [S2], the fold induction was 1 in [1] (setting [14]); 1 in test [2] (setting [15]); 4.47 in test [3] (setting [16]); 4.14 in test [4] (setting [17]); 1 in [5] (setting [18]); 1 in [6] (setting [19]). The fold induction in test [7] (setting [20]), in [8] (setting [21]), in [9] (setting [22]), in test [10] (setting [23]), in [11] (setting [24]) and in [12] (setting [25]) was 1 each time. The fold induction in test [13] (setting [26]) was found to be 3.18.

As to `CCOC(=O)C1=NOC(c2ccccc2)(c2ccccc2)C1` [S3, Isoxadifen-ethyl], the fold induction at 150 g/ha in test [1] (Hordeum vulgare, 6 h, read-out: Expression value, 1.1 Contig2631_at) is 97.7; in test [2] (Hordeum vulgare, topical, 6 h, read-out: Expression value, 1.2 HI02E21u_s_at) it was 40.8; in test [3] (Hordeum vulgare, topical, 6 h, read-out: Expression value, 1.4 Contig5146_at), 4.5; in [4] (Hordeum vulgare, topical, 6 h, read-out: Expression value, 1.7 Contig6194_a_at), 3.25; in test [5] (Hordeum vulgare, 6 h, read-out: Expression value, 1.10 Contig1736_at), 2.91; in test [6] (Hordeum vulgare, topical, 6 h, read-out: Expression value, 1.12 Contig6611_at), 2.41. For the same molecule, the fold induction at 150 g/ha in test [7] (Hordeum vulgare, topical, 6 h, read-out: Expression value, 1.14 Contig2305_at) worked out at 2.14; in test [8] (Hordeum vulgare, topical, 6 h, read-out: Expression value, 1.15 Contig1737_at) it was 1; in test [9] (Hordeum vulgare, topical, 6 h, read-out: Expression value, 1.17 Contig13413_at), 1; in [10] (Hordeum vulgare, topical, 6 h, read-out: Expression value, 1.20 Contig2337_at) it was 1; in test [11] (Hordeum vulgare, topical, 6 h, read-out: Expression value, 2.2 Contig34_s_at), 1; in test [12] (Hordeum vulgare, topical, 6 h, read-out: Expression value, 2.3 Contig88_x_at), 4.53. In [13] (Hordeum vulgare, topical, 6 h, read-out: Expression value, 5.3 Contig5023_at), the fold induction at 150 g/ha was determined as 1.
